In US20220279787A1, “a-Substituted Phenyl Structure-Containing Compound, Preparation Method Thereof, and Disinfectant” (Henan Ruibo Pharmaceutical Technology Co. Ltd., priority 2019, published 2022):

Key:
Format in all cases: cell-based
[1] = test system: Staphylococcus aureus ATCC 29213; assay: Suspension quantitative sterilization experiment, Staphylococcus aureus ATCC 29213; conditions: for Activity (killing logarithmic value): suspension method, action time 30 min
Experimental: (§1) (5) Operation Method of Suspension Quantitative Experiment:
(§2) a. The freeze-dried strain tube was provided, opened up under an aseptic condition, and an appropriate amount of nutrient broth was added thereto with a capillary pipette. The strain was melted and dispersed by gently blowing and sucking several times. A test tube containing 5.0 mL-10.0 mL of nutrient broth medium was provided, and a small amount of bacterial suspension was dropped thereto, and incubated at 37° C. for 18 h-24 h. The bacterial suspension of the first generation culture was taken by using an inoculation loop, and streaked and inoculated onto a nutrient agar medium plate, and incubated at 37° C. for 18 h-24 h. The typical colonies from the second generation culture was picked out, inoculated onto a nutrient agar slant, and incubated at 37° C. for 18 h-24 h, obtaining the third generation culture.
(§3) b. The monoclonal strains of the third generation culture of Escherichia coli ATCC 25922, Staphylococcus aureus ATCC 29213, and Pseudomonas aeruginosa ATCC 27853 were picked out respectively and placed in 3 mL of NMB. The strains were shaken in a constant temperature culture shaker for 3 h with a rotation speed of 220 rpm, obtaining a bacterial suspension with a concentration of (1-5)×10^8 CFU/mL.
(§4) c. 0.5 mL of bacterial suspension was added to a sterile test tube, and 0.5 mL of an organic interfering substance (0.03 mol/L PBS buffer) was then added thereto. They were mixed to be uniform, and placed in a water bath at 20° C.±1° C. for 5 min. 4.0 mL of the sample to be tested prepared in step (1) was drawn with a sterile pipette and injected into the mixed solution, mixed quickly, and the time was recorded immediately.
(§5) d. After the experimental bacteria interacted with the sample to be tested for the predetermined time of 1 min, 5 min, 15 min and 30 min. 0.5 mL of the mixture of the experimental bacteria and the sample to be tested was drawn respectively and added to 4.5 mL of a neutralizer, and mixed to be uniform.
(§6) e. After 10 min of neutralization, 1.0 mL of the sample solution was drawn, and the number of viable bacteria was determined by viable count method. After the viable count method, sample solution of each pipette was inoculated onto 2 plates. When the number of colonies growing on the plate was large, 10-fold dilution was performed, and then the viable bacteria was cultured and counted.
(§7) f. At the same time, PBS buffer was used to replace the sample to be tested, and a parallel test was performed as a positive control.
(§8) g. All test samples were placed in a 37° C. incubator overnight, and the results were observed.
(§9) h. The experiment was repeated for 3 times, the concentration of viable bacteria (CFU/mL) of each group was calculated, and converted to logarithmic value (N), and then the killing logarithmic value was calculated according to the following equation:
(§10) Killing logarithmic value (KL)=the logarithmic value of the average viable bacteria concentration of the control group (No)−the logarithmic value of the viable bacteria concentration of the test group (Nx).
(§11) When calculating the killing logarithmic value, two digits after the decimal point was kept, and digital round-off was allowed.

[2] = test system: Escherichia coli ATCC 25922; assay: Suspension quantitative sterilization experiment, Escherichia coli ATCC 25922; conditions: for Activity (killing logarithmic value): suspension method, action time 30 min
Experimental: as §1, §2, §3, §4, §5, §6, §7, §8, §9, §10, §11

[3] = test system: Bacillus subtilis var. niger spores ATCC 9372; assay: Suspension quantitative experiment, Bacillus subtilis var. niger spores; conditions: Bacillus subtilis, ATCC9372, 0.5 h, read-out: Activity (killing logarithmic value)
Experimental: (4) Operation Method of Suspension Quantitative Experiment:
a. The Bacillus subtilis var. niger spores ATCC 9372 freeze-dried strain tube was provided, opened up under an aseptic condition, and an appropriate amount of nutrient broth was added thereto with a capillary pipette. The strain was melted and dispersed by gently blowing and sucking several times. A test tube containing 5.0 mL-10.0 mL of nutrient broth medium was provided, and a small amount of bacterial suspension was dropped thereto, and incubated at 37° C. for 18 h-24 h. The bacterial suspension of the first generation culture was taken by using an inoculation loop.
b. The monoclonal strains of the first generation culture were picked out and placed in 3 mL of NMB. The strains were shaken in a constant temperature culture shaker for 3 h with a rotation speed of 220 rpm, obtaining a bacterial suspension with a concentration of (1-5)×10^8 CFU/mL.
as §4
d. After the experimental bacteria interacted with the sample to be tested for the predetermined time. 0.5 mL of the mixture of the experimental bacteria and a disinfectant was drawn respectively and added to 4.5 mL of a neutralizer, and mixed to be uniform.
as §6
h. At the same time, PBS buffer was used to replace the sample to be tested, and a parallel test was performed as a positive control.
f. All test samples were placed in a 37° C. incubator overnight, and the results were observed.
g. The experiment was repeated for 3 times, the concentration of viable bacteria (CFU/mL) of each group was calculated, and converted to logarithmic value (N), and then the killing logarithmic value was calculated according to the following equation:
as §10, §11

[4] = test system: Pseudomonas aeruginosa ATCC 27853; assay: Suspension quantitative sterilization experiment, Pseudomonas aeruginosa ATCC 27853; conditions: for Activity (killing logarithmic value): suspension method, action time 30 min
Experimental: as §1, §2, §3, §4, §5, §6, §7, §8, §9, §10, §11

With `Cc1ccc(C(C(=O)O)c2ccc(O)cc2)cc1` (stereo not shown) [Example 4, 2-(4-hydroxyphenyl)-2-p-tolueneacetic acid] the “Activity (killing logarithmic value)” value ([1]; 6.25 g/L) was 0.75, the “Activity (killing logarithmic value)” value ([2]; 6.25 g/L) was 0.78 and the log reduction at 15000 µg/mL [3] was 1.54. The “Activity (killing logarithmic value)” value ([4]; 6.25 g/L) was 0.78.

With `CNC(=O)C(c1ccncc1)c1ccc(O)c(O)c1` (stereo not shown) [Example 6, 2-(3,4-dihydroxyphenyl)-N-methyl-2-(4-pyridyl)acetamide] the “Activity (killing logarithmic value)” value ([1]; 6.25 g/L) was 1.78, the “Activity (killing logarithmic value)” value ([2]; 6.25 g/L) was 1.64 and the log reduction at 15000 µg/mL [3] was 0.76. For the same compound, the “Activity (killing logarithmic value)” value ([4]; 6.25 g/L) was 0.31.

With `O=C(O)C(c1ccccc1)c1ccccc1` [Example 7, 2,2-diphenylacetic acid] the “Activity (killing logarithmic value)” value ([1]; 6.25 g/L) was 1.45, the “Activity (killing logarithmic value)” value ([2]; 6.25 g/L) was 1.02 and the log reduction at 15000 µg/mL [3] was 1.97. The “Activity (killing logarithmic value)” value ([4]; 6.25 g/L) was 1.29.

For `O=C(O)C(c1ccc(O)c(O)c1)c1ccc(O)c(O)c1` [Example 8, 2,2-di-(3,4-dihydroxyphenyl)acetic acid], the “Activity (killing logarithmic value)” value ([1]; 6.25 g/L) was 0.91, the “Activity (killing logarithmic value)” value ([2]; 6.25 g/L) was 1.73 and the log reduction at 15000 µg/mL [3] was 2.13. The “Activity (killing logarithmic value)” value ([4]; 6.25 g/L) was 0.88.

In the case of `Oc1ccccc1` [Phenol solution, Phenol], the Killing logarithmic value ([1]; 0.15 g/L, 1 min) is reported as 0.45, the Killing logarithmic value ([1]; 0.15 g/L, 5 min) is reported as 0.48 and the Killing logarithmic value ([1]; 0.15 g/L, 15 min) is reported as 0.55. It also gave a Killing logarithmic value ([1]; 0.15 g/L, 30 min) of 0.73, a Killing logarithmic value ([1]; 0.31 g/L, 1 min) of 0.67 and a Killing logarithmic value ([1]; 0.31 g/L, 5 min) of 0.69. It also gave a Killing logarithmic value ([1]; 0.31 g/L, 15 min) of 0.73, a Killing logarithmic value ([1]; 0.31 g/L, 30 min) of 0.86 and a Killing logarithmic value ([1]; 0.78 g/L, 1 min) of 0.79. The Killing logarithmic value ([1]; 0.78 g/L, 5 min) was 0.82, the Killing logarithmic value ([1]; 0.78 g/L, 15 min) was 0.89 and the Killing logarithmic value ([1]; 0.78 g/L, 30 min) was 0.95. The Killing logarithmic value ([1]; 1.56 g/L, 1 min) was 0.86, the Killing logarithmic value ([1]; 1.56 g/L, 5 min) was 0.91 and the Killing logarithmic value ([1]; 1.56 g/L, 15 min) was 0.99. For the same compound, the Killing logarithmic value ([1]; 1.56 g/L, 30 min) was 1.02, the Killing logarithmic value ([1]; 3.12 g/L, 1 min) was 1.13 and the Killing logarithmic value ([1]; 3.12 g/L, 5 min) was 1.21. The Killing logarithmic value ([1]; 3.12 g/L, 15 min) was 1.23, the Killing logarithmic value ([1]; 3.12 g/L, 30 min) was 1.26 and the Killing logarithmic value ([1]; 6.25 g/L, 1 min) was 2.52. For the same compound, the Killing logarithmic value ([1]; 6.25 g/L, 5 min) was 2.62, the Killing logarithmic value ([1]; 6.25 g/L, 15 min) was 2.74 and the Killing logarithmic value ([1]; 6.25 g/L, 30 min) was 2.99. It also gave a Killing logarithmic value ([2]; 0.15 g/L, 1 min) of 0.21, a Killing logarithmic value ([2]; 0.15 g/L, 5 min) of 0.29 and a Killing logarithmic value ([2]; 0.15 g/L, 15 min) of 0.43. The Killing logarithmic value ([2]; 0.15 g/L, 30 min) was 0.47, the Killing logarithmic value ([2]; 0.31 g/L, 1 min) was 0.29 and the Killing logarithmic value ([2]; 0.31 g/L, 5 min) was 0.31. The Killing logarithmic value ([2]; 0.31 g/L, 15 min) was 0.46, the Killing logarithmic value ([2]; 0.31 g/L, 30 min) was 0.58 and the Killing logarithmic value ([2]; 0.78 g/L, 1 min) was 0.32. It also gave a Killing logarithmic value ([2]; 0.78 g/L, 5 min) of 0.46, a Killing logarithmic value ([2]; 0.78 g/L, 15 min) of 0.63 and a Killing logarithmic value ([2]; 0.78 g/L, 30 min) of 0.79. It also gave a Killing logarithmic value ([2]; 1.56 g/L, 1 min) of 0.47, a Killing logarithmic value ([2]; 1.56 g/L, 5 min) of 0.65 and a Killing logarithmic value ([2]; 1.56 g/L, 15 min) of 0.78. For the same compound, the Killing logarithmic value ([2]; 1.56 g/L, 30 min) was 0.99, the Killing logarithmic value ([2]; 3.12 g/L, 1 min) was 0.69 and the Killing logarithmic value ([2]; 3.12 g/L, 5 min) was 0.76. For the same compound, the Killing logarithmic value ([2]; 3.12 g/L, 15 min) was 0.81, the Killing logarithmic value ([2]; 3.12 g/L, 30 min) was 1.02 and the Killing logarithmic value ([2]; 6.25 g/L, 1 min) was 3.57. The Killing logarithmic value ([2]; 6.25 g/L, 5 min) was 3.69, the Killing logarithmic value ([2]; 6.25 g/L, 15 min) was 5.86 and the Killing logarithmic value ([2]; 6.25 g/L, 30 min) was 6.17. The Killing logarithmic value ([4]; 0.15 g/L, 1 min) was 0.46, the Killing logarithmic value ([4]; 0.15 g/L, 5 min) was 0.51 and the Killing logarithmic value ([4]; 0.15 g/L, 15 min) was 0.57. It also gave a Killing logarithmic value ([4]; 0.15 g/L, 30 min) of 0.67, a Killing logarithmic value ([4]; 0.31 g/L, 1 min) of 0.76 and a Killing logarithmic value ([4]; 0.31 g/L, 5 min) of 0.79. For the same compound, the Killing logarithmic value ([4]; 0.31 g/L, 15 min) was 0.84, the Killing logarithmic value ([4]; 0.31 g/L, 30 min) was 0.93 and the Killing logarithmic value ([4]; 0.78 g/L, 1 min) was 0.99. It also gave a Killing logarithmic value ([4]; 0.78 g/L, 5 min) of 1.08, a Killing logarithmic value ([4]; 0.78 g/L, 15 min) of 1.12 and a Killing logarithmic value ([4]; 0.78 g/L, 30 min) of 1.16. The Killing logarithmic value ([4]; 1.56 g/L, 1 min) was 1.21, the Killing logarithmic value ([4]; 1.56 g/L, 5 min) was 1.25 and the Killing logarithmic value ([4]; 1.56 g/L, 15 min) was 1.34. It also gave a Killing logarithmic value ([4]; 1.56 g/L, 30 min) of 1.65, a Killing logarithmic value ([4]; 3.12 g/L, 1 min) of 1.56 and a Killing logarithmic value ([4]; 3.12 g/L, 5 min) of 1.86. It also gave a Killing logarithmic value ([4]; 3.12 g/L, 15 min) of 1.92, a Killing logarithmic value ([4]; 3.12 g/L, 30 min) of 1.98 and a Killing logarithmic value ([4]; 6.25 g/L, 1 min) of 3.07. It also gave a Killing logarithmic value ([4]; 6.25 g/L, 5 min) of 3.65, a Killing logarithmic value ([4]; 6.25 g/L, 15 min) of 4.55 and a Killing logarithmic value ([4]; 6.25 g/L, 30 min) of 5.25.
